# Measured values taken from patent publication US20240299420A1, “TETRACYCLINE DERIVATIVE-INDUCED MITOHORMESIS MEDIATES DISEASE TOLERANCE AGAINST VIRAL INFECTIONS” (priority 2021, published 2024).
# “Also recorded” adds a separate entry of the source.
# How the values were obtained:
# [1] = tested on: hsp-6::gfp reporter (UPR^mt); assay type: in vivo, Caenorhabditis elegans; settings: for UPR^mt activation (hsp-6::gfp reporter): 68 µM, 9-TB at 17 μM; for induction of MSR and in particular mitohormesis: summary of screen of 51 tetracycline derivatives
# [2] = tested on: hsp-6::gfp reporter (UPR^mt); assay type: in vivo, Caenorhabditis elegans; settings: microfluidic device; relative to Dox and cco-1 RNAi
# E. coli = assay: Minimum inhibitory concentration (MIC) of bacterial growth; assay type: cell-based; settings: compared with Dox
# P. aeruginosa = assay: as above; assay type: cell-based; settings: compared with Dox
# HEK293T cells [3] = assay: Mitonuclear protein imbalance (MTCO1/ATP5A immunoblot) in HEK293T cells; assay type: cell-based, human; settings: 24 hours, stronger than Dox
# Protocol: The mitonuclear protein imbalance may be determined by a disbalanced ratio between a mitochondrial-encoded gene (e.g. MTCO1) versus a nuclear-encoded gene (e.g. ATP5A) of OXPHOS subunits as is illustrated by FIG. 3A.
# A. Immunoblots of HEK293T cells for the OXPHOS subunits ATP5A (encoded in nuclear DNA) and MTCO1 (encoded in mitochondrial DNA) with TUBULIN serving as a control. Quantification of the relative MTCO1/ATP5A ratio is shown on the right. […] Statistical analysis was performed by ANOVA followed by Tukey post-hoc test (*p≤0.05, **p≤0.01, ***p≤0.001). Error bars represent standard error mean (SEM).
# HEK293T (Human embryonic kidney 293T) cells were purchased from ATCC and have been routinely checked in the laboratory for mycoplasma contamination with the MycoProbe detection kit (R&D systems). […]
# Tissues and cells were lysed using RIPA buffer (50 mM Tris-HCl pH 7.4, 150 mM NaCl, 1% NP-40, 0.5% Na-deoxycholate, 0.1% SDS, 2 mM EDTA, and 50 mM NaF) supplemented with protease and phosphatase inhibitor cocktails (Roche/Thermo Fisher Scientific). […] Protein concentration was determined by the Lowry method. […] Samples were analyzed by immunoblotting using standard procedures.
# HEK293T cells [4] = assay: Oxygen consumption rate in HEK293T cells (Seahorse XF96); assay type: cell-based, human; settings: 24 h, compared with Dox
# Protocol: B. Oxygen consumption rate of HEK293T cells exposed to different concentrations of Dox, 9-TB, or ATc (n=8). […] Error bars represent standard error mean (SEM).
# HEK293T (Human embryonic kidney 293T) cells were purchased from ATCC and have been routinely checked in the laboratory for mycoplasma contamination with the MycoProbe detection kit (R&D systems). HEK293T were grown at 37° C. in a humidified atmosphere of 5% CO2/95% air in DMEM medium with 4.5 g/L glucose (Gibco) including 10% FBS (Gibco), 1× nonessential amino acids (Invitrogen) and 5 mM penicillin/streptomycin (Invitrogen). Cells were treated for 24 h with the indicated doses of compounds 24 hours after seeding. Oxygen consumption rate was measured with the Seahorse XF96 instrument (Seahorse Bioscience) according to the manufacturer's protocol.
# HEK293T cells [5] = assay: MSR gene transcripts by RT-qPCR in HEK293T cells; assay type: cell-based, human; settings: 24 h, compared with Dox
# Protocol: Transcript levels of the indicated MSR genes measured by RT-qPCR (n=4).
# HEK293T (Human embryonic kidney 293T) cells were purchased from ATCC and have been routinely checked in the laboratory for mycoplasma contamination with the MycoProbe detection kit (R&D systems). HEK293T were grown at 37° C. in a humidified atmosphere of 5% CO2/95% air in DMEM medium with 4.5 g/L glucose (Gibco) including 10% FBS (Gibco), 1× nonessential amino acids (Invitrogen) and 5 mM penicillin/streptomycin (Invitrogen). Cells were treated for 24 h with the indicated doses of compounds 24 hours after seeding.
# RNA from cells and tissues was extracted using TRIzol and then reverse-transcribed into cDNA by the QuantiTect Reverse Transcription Kit (Qiagen) following the manufacturer's instructions. The qPCR reactions were performed using the LightCycler 480 II system and SYBR Green qPCR Master mix (Roche). All results are presented relative to the mean of housekeeping genes (ΔΔCt method). All mRNA expression levels were corrected for expression of the housekeeping gene 36B4 or Actb for samples of mouse origin, ACTB for samples of human origin.
# [6] = tested on: mouse bone marrow derived macrophages (BMDM); assay: ISG and MSR gene transcripts by RT-qPCR in BMDM; assay type: cell-based; settings: 24 hours, 9-TB 1.88 μg/ml, ATc 3.75 and 7.5 μg/ml vs Dox 7.5-15 μg/ml
# [7] = tested on: mouse bone marrow derived macrophages (BMDM); assay: IFNβ measurement in BMDM culture medium (ELISA); assay type: cell-based; settings: 24 hours, 9-TB 1.88 μg/ml, ATc 3.75 and 7.5 μg/ml vs Dox 7.5-15 μg/ml
# IFV H1N1 PR8 strain [8] = assay: IFV infection in BALB/cN mice, 175 PFU, preventive treatment; assay type: in vivo, mouse; settings: for survival (mice recovering): Dox 40 mpkd or 9-TB 1 mpkd daily i.p., all control mice dead by day 11
# IFV H1N1 PR8 strain [9] = assay: IFV infection in BALB/cN mice, 1000 PFU, preventive treatment; assay type: in vivo, mouse; settings: Dox 50 mpkd
# IFV H1N1 PR8 strain [10] = assay: IFV infection in BALB/cN mice, 760 PFU, therapeutic treatment; assay type: in vivo, mouse; settings: 9-TB 0.025 and 0.05 mpkd from day 1 post-inoculation, trend, not significant
# Excerpt: A. Comparison of bacterial community composition by nonmetric multidimensional scaling (NMDS) based on the Bray-Curtis dissimilarity. B. Comparison of bacterial species diversity in terms of Shannon diversity index (SDI) and richness. Statistical significance assessed by Kruskal-Wallis test and post-hoc Wilcoxon test with p-value adjusted for multiple comparison using the Holm-Bonferroni method. ‘****’: p<0.0001, ‘***’: p<0.001, ‘**’: p<0.01, ‘*’: p<0.05, ‘ns’: p>0.05. C-D. 8-weeks old BALB/cN mice (n=12) were infected intranasally with 760 PFU of IFV-A H1N1 PR8 and injected with 9-TB (0.05, 0.025 mpkd). Survival (C) and clinical score (D) were followed for 14 days post-infection (n=12). Statistical analysis was performed by ANOVA followed by Tukey post-hoc test (*p≤0.05, **p≤0.01, ***p≤0.001). For survival curves, statistical analysis was performed by Log-rank (Mantel-Cox) test (*p≤0.05, **p≤0.01, ***p≤0.001). Error bars represent standard error mean (SEM).
# A. Descriptive scheme of the mouse IFV infection experiment depicted in FIG. 5C-D, S5B. B. 8-weeks old BALB/cN mice (n=12) were infected intranasally with 760 PFU of IFV-A H1N1 PR8 and injected with 9-TB (0.05, 0.025 mpkd). Body weight was followed for 14 days post-inoculation (n=12). C. […]
# gut bacterial community = settings: Dox 40 mpkd; for gut bacterial community composition (perMANOVA, NMDS): after 3 and 6 days of treatment, 9-TB 1 mpkd, vs untreated mice
# [11] = tested on: IFV-A H1N1 PR8 infected BALB/cN mice; assay: RNA-Seq and GSEA of lung, liver and kidney of IFV infected mice (175 PFU, day 7)
# germ-free C57BL/6J mice = assay type: in vivo, mouse; settings: Dox 500 mpkd in drinking water, 16 days, vs control
# Excerpt: B. Volcano plots displaying-log(adj. p-value) and the log fold change (FC) in expression of genes in kidney and liver. Above the graph, the number of differentially expressed genes is indicated (genes with adjusted p value (adj.pval)<0.05). C. […] E. Immunoblots of phosphorylated elF2α (pelF2α) and total elF2α and quantification in liver of Dox-treated germ-free mice.
# Body weight at the time of the sacrifice was not different between the control and Dox-treated animals (FIG. 7A), indicating the absence of obvious adverse effects. […] Dox elicited organ-specific transcriptional responses, with the expression of remarkably more genes and different being affected in the kidney compared to the liver (FIG. 7B-C). […] The MSR features the induction of mitochondrial chaperones and proteases, such as Hspa9 and Lonp1, as well as of enzymes mediating adaptation to nutrient deprivation, such as asparagine synthetase (ASNS), which were increased at both the transcript and protein levels (FIG. 1C-D). […] Dox-treated germ-free mice kidneys thus gathered the typical attributes of the ATF4-ISR, a hallmark of the mammalian response to mitochondrial stress.
# Male 9 weeks-old C57BL/6J mice were treated for 16 days with 500 mg/kg/day doxycycline hyclate (Sigma) in drinking water. Mice were housed with ad libitum access to water and food and kept under a 12-hour dark/12-hour light cycle. […]
Structure (SMILES),UPR^mt activation (hsp-6::gfp reporter) [1],induction of MSR and in particular mitohormesis [1],"UPR^mt induction, dose-response (GFP signal) [2]",impact on the mitonuclear protein imbalance (HEK293T cells [3]) [fold],basal oxygen consumption rate (OCR) (HEK293T cells [4]),induction of transcripts for the mammalian MSR signature genes (HEK293T cells [5]),induction of the ISGs and MSR genes [6],secretion of IFNβ [7],survival (mice recovering) (IFV H1N1 PR8 strain [8]) [%],"gut bacterial community composition (perMANOVA, NMDS) (gut bacterial community)",also measured
"C[C@H]1c2ccc(C(C)(C)C)c(O)c2C(O)=C2C(=O)[C@]3(O)C(O)=C(C(N)=O)C(=O)[C@@H](N(C)C)[C@@H]3[C@@H](O)[C@@H]21 [9-TB, 9-tert-butyl-doxycycline]",strongest activators,strongest inducer of MSR,more efficacious at lower doses; also recorded: surpassing the robust UPR^mt caused by cco-1 RNAi feeding,~2,reduced basal oxygen consumption rate (OCR) in a dose-dependent and more pronounced fashion than Dox,more prominent,superior to Dox,superior to Dox,50,no differences were observed,"MIC for E. coli (E. coli): significantly higher MIC; MIC for P. aeruginosa (P. aeruginosa): significantly higher MIC; viral titer in the lung tissue (IFV H1N1 PR8 strain [8]; day 7 post infection, Dox 40 mpkd, 9-TB 1 mpkd): no significant difference in viral titer; mortality and decline in health (IFV H1N1 PR8 strain [9]; 9-TB 12.5 mpkd i.p.): delayed mortality; viral titer in the lungs (IFV H1N1 PR8 strain [9]; day 5 post-infection, 9-TB 12.5 mpkd): absence of an impact on the viral titer; survival (IFV H1N1 PR8 strain [10]): 20%; inflammatory and immune-related terms in the lungs (GSEA) ([11]; 9-TB 1 mpkd vs control IFV-infected): significantly down-regulated; immune-related and inflammatory gene sets in liver and kidney (GSEA) ([11]; 9-TB 1 mpkd, Dox 40 mpkd): down-regulated; lung cell type transcript profiles (GSEA) ([11]; 9-TB 1 mpkd, Dox 40 mpkd): reverted the loss of multiple cell types crucial to lung function"
"Cc1c2c(c(O)c3c(O)cccc13)C(=O)[C@]1(O)C(=O)C(C(N)=O)=C(O)[C@@H](N(C)C)[C@@H]1C2 [ATc, anhydrotetracycline]",strongest activators,strongly induce MSR,more efficacious at lower doses,~2,reduced basal oxygen consumption rate (OCR) in a dose-dependent and more pronounced fashion than Dox,more prominent,superior to Dox,superior to Dox,,,
"C[C@H]1c2cccc(O)c2C(=O)C2=C(O)[C@]3(O)C(=O)C(C(N)=O)=C(O)[C@@H](N(C)C)[C@@H]3[C@@H](O)[C@@H]21 [Dox, doxycycline]",,,,,,,,,50,significant difference in composition,Body weight at the time of the sacrifice (germ-free C57BL/6J mice): not different; bacterial species diversity (Shannon diversity index and richness) (gut bacterial community): lower bacterial species diversity; gene sets involved in cytopathic processes and fibrosis in liver and kidney ([11]; Dox 40 mpkd): induced
